Experimental data published in the NIST ThermoML archive (doi:10.1021/je901020a).
Numbers after ± are expanded uncertainties.

Experiments:
[1] = xn = mol fraction of the nth substance listed; details: 101 kPa, Liquid; for speed of sound: Pulse-echo method
[2] = refractive index (Na D-line) (dimensionless); xn = mol fraction of the nth substance listed; details: 101 kPa, Liquid, Standard Abbe refractometry

## Cc1ccc(C)cc1 [1,4-dimethylbenzene] + C1CCCCC1
[1]; 298.15 K, x2 = 0
  speed of sound: 1310 ± 2 m/s
  mass density: 856.6 ± 0.5 kg/m3
[1]; 298.15 K, x2 = 0.0459
  speed of sound: 1306 ± 2 m/s
  mass density: 852.9 ± 0.5 kg/m3
[1]; 298.15 K, x2 = 0.0952
  speed of sound: 1301 ± 2 m/s
  mass density: 848.6 ± 0.5 kg/m3
[1]; 298.15 K, x2 = 0.1948
  speed of sound: 1292 ± 2 m/s
  mass density: 840.1 ± 0.5 kg/m3
[1]; 298.15 K, x2 = 0.2874
  speed of sound: 1284 ± 2 m/s
  mass density: 832.3 ± 0.5 kg/m3
[1]; 298.15 K, x2 = 0.3929
  speed of sound: 1275 ± 2 m/s
  mass density: 823 ± 0.5 kg/m3
[1]; 298.15 K, x2 = 0.4964
  speed of sound: 1269 ± 2 m/s
  mass density: 814.1 ± 0.5 kg/m3
[1]; 298.15 K, x2 = 0.5938
  speed of sound: 1263 ± 2 m/s
  mass density: 805.7 ± 0.5 kg/m3
[1]; 298.15 K, x2 = 0.6949
  speed of sound: 1258 ± 2 m/s
  mass density: 797.2 ± 0.5 kg/m3
[1]; 298.15 K, x2 = 0.7906
  speed of sound: 1254 ± 2 m/s
  mass density: 789.5 ± 0.5 kg/m3
[1]; 298.15 K, x2 = 0.8927
  speed of sound: 1253 ± 2 m/s
  mass density: 781.5 ± 0.5 kg/m3
[1]; 298.15 K, x2 = 0.9493
  speed of sound: 1253 ± 2 m/s
  mass density: 777.5 ± 0.5 kg/m3
[1]; 313.15 K, x2 = 0
  speed of sound: 1248 ± 2 m/s
  mass density: 843.5 ± 0.5 kg/m3
[1]; 313.15 K, x2 = 0.0494
  speed of sound: 1243 ± 2 m/s
  mass density: 839.4 ± 0.5 kg/m3
[1]; 313.15 K, x2 = 0.1056
  speed of sound: 1238 ± 2 m/s
  mass density: 834.5 ± 0.5 kg/m3
[1]; 313.15 K, x2 = 0.2078
  speed of sound: 1228 ± 2 m/s
  mass density: 825.8 ± 0.5 kg/m3
[1]; 313.15 K, x2 = 0.3149
  speed of sound: 1218 ± 2 m/s
  mass density: 816.5 ± 0.5 kg/m3
[1]; 313.15 K, x2 = 0.4156
  speed of sound: 1209 ± 2 m/s
  mass density: 807.5 ± 0.5 kg/m3
[1]; 313.15 K, x2 = 0.5115
  speed of sound: 1202 ± 2 m/s
  mass density: 799.2 ± 0.5 kg/m3
[1]; 313.15 K, x2 = 0.6083
  speed of sound: 1195 ± 2 m/s
  mass density: 790.9 ± 0.5 kg/m3
[1]; 313.15 K, x2 = 0.7079
  speed of sound: 1189 ± 2 m/s
  mass density: 782.5 ± 0.5 kg/m3
[1]; 313.15 K, x2 = 0.8167
  speed of sound: 1184 ± 2 m/s
  mass density: 773.7 ± 0.5 kg/m3
[1]; 313.15 K, x2 = 0.9109
  speed of sound: 1182 ± 2 m/s
  mass density: 766.2 ± 0.5 kg/m3
[1]; 313.15 K, x2 = 0.9601
  speed of sound: 1181 ± 2 m/s
  mass density: 762.5 ± 0.5 kg/m3
[2]; 298.15 K, x2 = 0
  refractive index: 1.49312 ± 0.00069
[2]; 298.15 K, x2 = 0.0459
  refractive index: 1.49003 ± 0.0007
[2]; 298.15 K, x2 = 0.0952
  refractive index: 1.4866 ± 0.0007
[2]; 298.15 K, x2 = 0.1948
  refractive index: 1.47959 ± 0.0007
[2]; 298.15 K, x2 = 0.2874
  refractive index: 1.47324 ± 0.00069
[2]; 298.15 K, x2 = 0.3929
  refractive index: 1.4656 ± 0.00069
[2]; 298.15 K, x2 = 0.4964
  refractive index: 1.45843 ± 0.00069
[2]; 298.15 K, x2 = 0.5938
  refractive index: 1.45142 ± 0.00068
[2]; 298.15 K, x2 = 0.6949
  refractive index: 1.44417 ± 0.00068
[2]; 298.15 K, x2 = 0.7906
  refractive index: 1.43762 ± 0.00068
[2]; 298.15 K, x2 = 0.8927
  refractive index: 1.43057 ± 0.00068
[2]; 298.15 K, x2 = 0.9493
  refractive index: 1.42692 ± 0.00068
[2]; 313.15 K, x2 = 0
  refractive index: 1.48444 ± 0.00069
[2]; 313.15 K, x2 = 0.0494
  refractive index: 1.48145 ± 0.00068
[2]; 313.15 K, x2 = 0.1056
  refractive index: 1.47781 ± 0.00066
[2]; 313.15 K, x2 = 0.2078
  refractive index: 1.47072 ± 0.00064
[2]; 313.15 K, x2 = 0.3149
  refractive index: 1.46341 ± 0.00063
[2]; 313.15 K, x2 = 0.4156
  refractive index: 1.45628 ± 0.0006
[2]; 313.15 K, x2 = 0.5115
  refractive index: 1.44953 ± 0.0006
[2]; 313.15 K, x2 = 0.6083
  refractive index: 1.44272 ± 0.00062
[2]; 313.15 K, x2 = 0.7079
  refractive index: 1.43584 ± 0.00067
[2]; 313.15 K, x2 = 0.8167
  refractive index: 1.42845 ± 0.00061
[2]; 313.15 K, x2 = 0.9109
  refractive index: 1.42167 ± 0.00049
[2]; 313.15 K, x2 = 0.9601
  refractive index: 1.41809 ± 0.00045

## Cc1ccc(C)cc1 [1,4-dimethylbenzene] + C1CCCCCCC1
[1]; 298.15 K, x2 = 0
  speed of sound: 1310 ± 2 m/s
  mass density: 856.6 ± 0.5 kg/m3
[1]; 313.15 K, x2 = 0
  speed of sound: 1248 ± 2 m/s
  mass density: 843.5 ± 0.5 kg/m3
[2]; 298.15 K, x2 = 0
  refractive index: 1.49312 ± 0.00069
[2]; 313.15 K, x2 = 0
  refractive index: 1.48444 ± 0.00069

## Cc1ccc(C)cc1 [1,4-dimethylbenzene] + CC1CCCCC1
[1]; 298.15 K, x2 = 0
  speed of sound: 1310 ± 2 m/s
  mass density: 856.6 ± 0.5 kg/m3
[1]; 313.15 K, x2 = 0
  speed of sound: 1248 ± 2 m/s
  mass density: 843.5 ± 0.5 kg/m3
[2]; 298.15 K, x2 = 0
  refractive index: 1.49312 ± 0.001
[2]; 313.15 K, x2 = 0
  refractive index: 1.48444 ± 0.001

## C1CCCCC1 [cyclohexane] + Cc1cc(C)cc(C)c1
[1]; 298.15 K, x1 = 1
  speed of sound: 1255 ± 2 m/s
  mass density: 773.9 ± 0.5 kg/m3
[1]; 313.15 K, x1 = 1
  speed of sound: 1182 ± 2 m/s
  mass density: 759.6 ± 0.5 kg/m3
[2]; 298.15 K, x1 = 1
  refractive index: 1.4236 ± 0.00064
[2]; 313.15 K, x1 = 1
  refractive index: 1.41516 ± 0.00064

## C1CCCCC1 [cyclohexane] + Cc1ccc(C)cc1
[1]; 298.15 K, x1 = 1
  speed of sound: 1255 ± 2 m/s
  mass density: 773.9 ± 0.5 kg/m3
[1]; 313.15 K, x1 = 1
  speed of sound: 1182 ± 2 m/s
  mass density: 759.6 ± 0.5 kg/m3
[2]; 298.15 K, x1 = 1
  refractive index: 1.4236 ± 0.00064
[2]; 313.15 K, x1 = 1
  refractive index: 1.41516 ± 0.00064

## C1CCCCC1 [cyclohexane] + Cc1cccc(C)c1
[1]; 298.15 K, x1 = 1
  speed of sound: 1255 ± 2 m/s
  mass density: 773.9 ± 0.5 kg/m3
[1]; 313.15 K, x1 = 1
  speed of sound: 1182 ± 2 m/s
  mass density: 759.59 ± 0.5 kg/m3
[2]; 298.15 K, x1 = 1
  refractive index: 1.4236 ± 0.00064
[2]; 313.15 K, x1 = 1
  refractive index: 1.41516 ± 0.00064

## C1CCCCC1 [cyclohexane] + Cc1ccccc1C
[1]; 298.15 K, x1 = 1
  speed of sound: 1255 ± 2 m/s
  mass density: 773.9 ± 0.5 kg/m3
[1]; 313.15 K, x1 = 1
  speed of sound: 1182 ± 2 m/s
  mass density: 759.6 ± 0.5 kg/m3
[2]; 298.15 K, x1 = 1
  refractive index: 1.4236 ± 0.00064
[2]; 313.15 K, x1 = 1
  refractive index: 1.41516 ± 0.00064
